The values below come from ChEMBL document CHEMBL1201862, “PubChem BioAssay data set” (2004).

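Tested at 5 concentrations; 48 h exposure; 96-well plates; endpoints linearly interpolated, else capped at highest concentration. The concentration for 50% growth inhibition is given as GI50.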 Active and inactive are the calls of the source. Cut-off read from the data, not from the text of the source: active = GI50 up to about 1.1 µM and inactive = higher.

Holding throughout (assay): growth of human tumour cells (NCI), 48 h
Assay [1] relates to 786-0.
The subject of assay [2] is A498.
The test system of assay [3] is ACHN.
In assay [4] the test system is COLO 205.
Assay [5] has as its system HOP-62.
Assay [6] deals with IGROV-1.
The test system of assay [7] is KM12.
Assay [8] deals with M14.
Assay [9] relates to NCI-H226.
Assay [10] relates to NCI-H460.
The test system of assay [11] is RPMI-8226.
Assay [12] concerns SK-MEL-28.
The subject of assay [13] is SN12C.
In assay [14] the test system is HOP-92.
Assay [15] deals with SNB-75.
Assay [16] has as its system SR.
For assay [17], the system named is MCF7.

Turning to `CC1=C(C(=O)Nc2ccccc2)C(c2ccc3c(c2)OCO3)C(C(=O)Nc2ccccc2)=C(C)N1`, the GI50 is 36.3 µM (inactive) in [1]; 19.5 µM (inactive) in [2]; 33.7 µM (inactive) in assay [3]; 42.7 µM (inactive) in [4]; 41.8 µM (inactive) in assay [5]; 60.7 µM (inactive) in assay [6]. Moreover, the GI50 was 28.5 µM (inactive) in assay [7]; 33.7 µM (inactive) in assay [8]; 39.6 µM (inactive) in assay [9]; 43.9 µM (inactive) in [10]; 23.1 µM (inactive) in assay [11]; 31.6 µM (inactive) in assay [12]. Moreover, the GI50 in assay [13] is 34.2 µM (inactive).

Take `COc1ccc(Nc2nc3ccccc3nc2-c2cccs2)cc1`: the GI50 is 75 µM (inactive) in [1]; 42.6 µM (inactive) in assay [2]; > 100 µM (inactive) in [3]; > 100 µM (inactive) in assay [4]; 69.7 µM (inactive) in assay [5]; 51.5 µM (inactive) in assay [14]. Moreover, the GI50 in assay [6] was > 100 µM (inactive); in assay [7], > 100 µM (inactive); in assay [8], 47.1 µM (inactive); in assay [9] it was > 100 µM (inactive); in assay [10], 79.4 µM (inactive); in [12], > 100 µM (inactive). For the same molecule, the results for the GI50 in assay [13], in assay [15] and in [16] were > 100 µM (inactive), 28.6 µM (inactive) and 55 µM (inactive), respectively.

Regarding `Cn1cc(C(=O)c2ccccc2)ccc1=O`, the GI50 in assay [1], in assay [3], in [4], in assay [5], in assay [14] and in assay [6] was > 100 µM (inactive) each time. Besides, the GI50 in assay [7], in assay [8], in assay [9], in assay [10], in assay [11] and in assay [12] was > 100 µM (inactive) throughout. Further, the GI50 in [13], in [15] and in [16] was > 100 µM (inactive) each time.

As to `Nc1c(/N=N/c2ccc(-c3ccc(/N=N/c4c(O)ccc5cc(S(=O)(=O)O)cc(S(=O)(=O)O)c45)cc3)cc2)c(S(=O)(=O)O)cc2cc(S(=O)(=O)O)c(/N=N/c3ccccc3)c(O)c12`, the GI50 in [2] is > 100 µM (inactive); in [4], > 100 µM (inactive); in [5] it was > 100 µM (inactive); in assay [14], > 69.7 µM (inactive); in assay [6], > 100 µM (inactive); in assay [7], > 100 µM (inactive). Moreover, the GI50 is > 100 µM (inactive) in assay [17]; 19.6 µM (inactive) in [9]; > 100 µM (inactive) in assay [10]; > 100 µM (inactive) in [11]; > 100 µM (inactive) in [12]; > 100 µM (inactive) in [13]. Besides, the GI50 in assay [15] was 35.7 µM (inactive).

Regarding `CCCCCCCCCC/C=C/C=O`, the GI50 in assay [2], in assay [3], in assay [4], in assay [14], in [6] and in assay [7] was > 100 µM (inactive) throughout. The GI50 in assay [8], in assay [10], in [12], in assay [13], in [15] and in assay [16] was > 100 µM (inactive) each time.

For the molecule `O=C(/C(=C/c1ccc(O)cc1)c1ccccc1)c1ccccc1`, the GI50 is 18.5 µM (inactive) in assay [1]; 17.9 µM (inactive) in assay [2]; 16.1 µM (inactive) in assay [3]; 17.5 µM (inactive) in [4]; 19.3 µM (inactive) in [5]; 5.65 µM (inactive) in [14]. For the same molecule, the GI50 in assay [6] was 18.7 µM (inactive); in assay [7], 15.7 µM (inactive); in assay [8], 17.1 µM (inactive); in [9] it was 16.7 µM (inactive); in [10], 18.7 µM (inactive); in assay [11], 17.3 µM (inactive). Further, the GI50 was 17.9 µM (inactive) in [12], 18.4 µM (inactive) in assay [13], 16.7 µM (inactive) in assay [15] and 23.8 µM (inactive) in [16].

Regarding `CC1=C(C(=O)Nc2cccc(Cl)c2)C(c2ccc([N+](=O)[O-])cc2)C(C(=O)Nc2cccc(Cl)c2)=C(C)N1`, the GI50 is 22 µM (inactive) in [1]; 33.1 µM (inactive) in assay [2]; 25.1 µM (inactive) in assay [3]; 34.5 µM (inactive) in assay [4]; 29 µM (inactive) in assay [5]; 11.5 µM (inactive) in assay [14]. Besides, the GI50 is 26.5 µM (inactive) in assay [6]; 21.4 µM (inactive) in assay [7]; 16.6 µM (inactive) in assay [8]; 26.9 µM (inactive) in [9]; 20.1 µM (inactive) in assay [10]; 15.5 µM (inactive) in [11]. The figures for the GI50 in [12], in assay [13] and in assay [15] were 25.3 µM (inactive), 22.3 µM (inactive) and 10.7 µM (inactive), respectively.

`C=CC[N+](CCO)(CCO)CCCCCCCCCCCCCCCCCC`: the GI50 in assay [2] was 15.6 µM (inactive); in [4], 3.36 µM (inactive); in assay [5], 6.38 µM (inactive); in [14] it was 1.5 µM (inactive); in assay [6], 1.97 µM (inactive); in assay [7], 1.99 µM (inactive). Moreover, the GI50 in [17] is 7.1 µM (inactive); in assay [9], 7.78 µM (inactive); in assay [10], 4.05 µM (inactive); in assay [11] it was 2.25 µM (inactive); in assay [12], 12.9 µM (inactive); in assay [13] it was 6.78 µM (inactive). Besides, in [15], the GI50 was 2.43 µM (inactive).

Take `CCOC(=O)C(=O)Nc1ccccc1CC`: the GI50 in assay [1], in assay [3], in assay [5], in assay [14], in [6] and in assay [7] was > 100 µM (inactive) throughout. Further, the GI50 in assay [8], in assay [9], in [10], in [11], in assay [12] and in assay [13] was > 100 µM (inactive) in each case.

`CC1=C2[C@@H](c3ccccc3)C3C=CC2(C=C3C(F)(F)F)N(C(=O)NC2CCCCC2)C1=O` (stereo partly specified): the GI50 in assay [1] was 78 µM (inactive); in assay [2], > 100 µM (inactive); in assay [3] it was > 100 µM (inactive); in assay [4], > 100 µM (inactive); in assay [5], 68.1 µM (inactive); in [14], > 100 µM (inactive). In addition, the GI50 in [6] was > 100 µM (inactive); in [7], 72.6 µM (inactive); in assay [8], 81.3 µM (inactive); in assay [10] it was > 100 µM (inactive); in assay [12] it was > 100 µM (inactive); in assay [13] it was > 100 µM (inactive). For the same molecule, the GI50 in assay [15] is > 100 µM (inactive); in assay [16], 15.8 µM (inactive).

Regarding `OCc1ccccc1C1CSCSC1`, the GI50 in [3], in assay [7], in assay [9], in assay [10], in [12] and in assay [13] was > 100 µM (inactive) each time. In addition, in assay [15], the GI50 is > 100 µM (inactive).

In the case of `CCOC(=O)C1(Cc2ccc3ccccc3c2)CCCCC(=O)N1` (stereo unspecified), the GI50 in [1] is 38.8 µM (inactive); in assay [3], 67.5 µM (inactive); in assay [4], 39.1 µM (inactive); in [5], 44.6 µM (inactive); in assay [14], 13.1 µM (inactive); in assay [6] it was 57 µM (inactive). The GI50 in assay [8] is 39.3 µM (inactive); in assay [10] it was 25.7 µM (inactive); in [11], 3.78 µM (inactive); in assay [12], 41 µM (inactive); in assay [13] it was 44.5 µM (inactive); in assay [15], 0.286 µM (active).

Consider `N#CCC(=O)N/N=C1/C(=O)N(c2ccc(Cl)cc2)C(=O)C(=O)C1c1nc2ccccc2s1` (stereo unspecified), for which the GI50 was > 100 µM (inactive) in [1]; > 100 µM (inactive) in [2]; > 100 µM (inactive) in [3]; > 100 µM (inactive) in assay [4]; > 100 µM (inactive) in assay [5]; 28.2 µM (inactive) in [14]. Also, the GI50 was > 100 µM (inactive) in [6]; > 100 µM (inactive) in [7]; > 100 µM (inactive) in assay [8]; 26.3 µM (inactive) in [9]; > 100 µM (inactive) in assay [12]; > 100 µM (inactive) in assay [13]. The GI50 in assay [15] is 20.8 µM (inactive).

For the molecule `COC[C@H](C)/N=C/N1CCc2ccccc2C1(Cc1ccccc1)Cc1ccccc1`, the GI50 is 16.5 µM (inactive) in [1]; 21.2 µM (inactive) in [3]; 13.5 µM (inactive) in [4]; 24.8 µM (inactive) in assay [5]; 15.6 µM (inactive) in [14]; 68.1 µM (inactive) in [6]. For the same molecule, the GI50 in assay [7] is 13.6 µM (inactive); in assay [8], 10.3 µM (inactive); in [9], 18.5 µM (inactive); in assay [10], 12 µM (inactive); in assay [11], 15.8 µM (inactive); in assay [12], 11.1 µM (inactive). For the same molecule, the GI50 is 10.3 µM (inactive) in assay [13], 17.8 µM (inactive) in [15] and 11.6 µM (inactive) in [16].

For the molecule `C1CCC(OCc2nnn3c2CCC3)OC1` (stereo unspecified), the GI50 in assay [3], in assay [5], in assay [14], in assay [6], in assay [7] and in assay [8] was > 100 µM (inactive) each time. The GI50 in assay [10], in assay [12], in assay [13], in assay [15] and in assay [16] was > 100 µM (inactive) each time.
